{"source": "patent US20090069324A1", "about": "“CHEMICAL INHIBITORS OF BFL-1 AND RELATED METHODS” (The Burnham Institute, priority 2007, published 2009)", "key": {"[1]": {"system": "anti-apoptotic members of the Bcl-2-family", "assay": "FPA competition assay, GST-Bcl-2 fusion proteins with FITC-Bid BH3 peptide in PBS", "format": "binding, human", "settings": "100 nM GST-fusion proteins, 5 nM FITC-Bid BH3 peptide", "procedure": "Bcl-2-binding compounds were tested by competition assay analysis. The green tea compound […] (EGCG) has been reported to bind Bcl-2 and Bcl-XL (Leone et al., Cancer Res 63:8118-8121 (2003)). The ability of EGCG to compete with fluorochrome-labeled BH3 peptides was confirmed by FPA. 100 nM of GST-Bcl-2 fusion proteins were incubated with various concentrations of EGCG or control compound ECG (“C”) for 2 min in PBS buffer in 50 uL. Next, 5 nM FITC-conjugated-Bid BH3 peptide was added, bringing final volume to 100 uL and final DMSO concentration to 1%. Fluorescence polarization was measured after 20 min. […] This compound therefore can serve as a positive control when performing high throughput screens of a chemical library."}, "Bfl-1 [2]": {"target": "T1, Bfl-1 (Homo sapiens, UniProt Q16548)", "T1 construct": "lacking their C-terminal transmembrane domains (approximately last 20 amino-acids); made in house; host or cells: XL-1 Blue cells (E. coli), pGEX 4T-1", "T1 sequence (Q16548 1-155 limits assumed)": "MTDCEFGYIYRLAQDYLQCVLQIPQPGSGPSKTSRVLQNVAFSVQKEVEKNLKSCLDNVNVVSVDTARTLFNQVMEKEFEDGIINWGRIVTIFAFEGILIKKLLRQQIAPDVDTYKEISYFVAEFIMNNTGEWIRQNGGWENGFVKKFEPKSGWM", "assay": "Bfl-1 TR-FRET assay (FITC-Bid, Tb-anti-GST antibody)", "format": "binding", "settings": "Tables 3-5; read-out: Bfl-1 TR FRET IC50", "procedure": "TR-FRET assay. For confirmation of FPA results, a TR-FRET assay utilizing terbium- (Tb-) labeled anti-GST antibody (Th-Ab) was developed. […] The reaction mixture was preincubated for 1 h, and TR-fluorescence (TRF) was measured on an M5 plate reader (Molecular Devices) using excitation at 340 nm and emission at […]. The measurements were averaged from 5 readings during 1 ms after an initial delay 0.1 ms. TR-FRET signal was calculated as the ratio of TR-Fluorescence at 520 nm to TR-Fluorescence at […].\nFor Bfl-1 TR-FRET assays, Bfl-1 protein and FITC-Bid peptide (FITC-Ahx-[…]) (SEQ ID NO: 1) were utilized. Terbium-anti-GST antibody (Tb-anti-GST Ab) was obtained from Invitrogen (San Diego Calif.). The assay buffer contained 25 mM Bis-Tris, pH 7.0, 1 mM TCEP, and 0.005% Tween 20. The Tb-Ab buffer contained 2.5 nM Tb-anti-GST antibody in assay buffer. The Bfl-1/Th-Ab working solution contained 5 nM Bfl-1 in Th-Ab assay buffer. The solution was prepared fresh and kept on ice prior to use. The FITC-Bid working solution contained 5.6 nM FITC-Bid in assay buffer.\nFor the Bfl-1 TR-FRET dose-response screening protocol, dose-response curves contained 10 concentrations of compounds obtained using 2-fold serial dilution. Compounds were serially diluted in 100% DMSO, and then diluted with water to 10% final DMSO concentration. A 4 μl aliquot of compounds in 10% DMSO was transferred into columns 3-22 of Greiner 384-well white small-volume plates. Columns 1-2 and 23-24 contained 4 μL of 10% DMSO.\nColumns 1-2 were reserved for positive controls, and 8 μL of Th-Ab buffer was added using a WellMate bulk dispenser (Matrix). An aliquot of 8 μL of Bfl-1/Th-Ab working solution was added to columns 3-24 of Greiner 384 well white plates using a WellMate bulk dispenser (Matrix). Columns 23-24 represented negative control wells. Plates were incubated for 1 h at 4° C. An 8 μL aliquot of freshly prepared FITC-Bid working solution was added to the whole plate using WellMate bulk dispenser (Matrix). Plates were incubated for 4 h at room temperature protected from direct light. Fluorescence was measured on the M5 plate reader (excitation: 340 nm, emission: 490 and 520 nm, cutoff: 475 and 515 nm, respectively) in Time Resolved (TR) mode with signal integrated for 1 ms after initial delay of 0.1 ms. TR-FRET signal was calculated as the ratio of TR-Fluorescence at 520 nm to TR-Fluorescence at 490 nm. Data analysis was performed using a sigmoidal dose-response equation through non-linear regression."}, "Solubility": {"assay": "Solubility", "procedure": "Compounds were screened for inhibitory activity of Bfl-1 essentially as described in Example 1, and including a 1 h incubation of Bfl-1 in the presence of compounds and a 4 h incubation after the subsequent addition of the fluorescent probe. […] The assay was screened against the entire NIH small molecule library, which at the time consisted of 65,000 compounds. […] Controls included an “artifact” plate on which a GAPDH assay was performed to check selectivity, and a solubility plate on which a solubility assay was performed to test solubility."}, "Bfl-1 [3]": {"target": "T1, Bfl-1", "assay": "Bfl-1 fluorescence polarization assay (FPA/FP), competition with FITC-Bid BH3 peptide", "format": "binding", "settings": "text b268, assay not stated (equals FP value of Table 5); read-out: IC50", "procedure": "Fluorescence polarization assays (FPA). To determine the binding affinity of anti-apoptotic Bcl-2 polypeptides to FITC-conjugated Bid BH3 peptide, fluorescence polarization assays (FPAs) were performed according to published procedures (Zhai et al., Biochem. J. 376:229-236 (2003)). […] Fluorescence polarization was measured after 10 min using an Analyst™ AD Assay Detection System (LJL Biosystem, Sunnyvale, Calif.) in phosphate-buffered saline (PBS) (pH 7.4). The IC50 determinations were performed using GraphPad Prism software (GraphPad, Inc., San Diego, Calif.).\nCompetition assays. Using the same procedure outlined above, 100 nM of GST-Bfl-1 protein were incubated with the compounds at 50 μM concentration for 30 min. Then, 5 nM of FITC-Bid BH3 peptide was added. Fluorescence polarization was measured after 10 min. […]"}}}
{"molecule": "O=C(O[C@@H]1Cc2c(O)cc(O)cc2O[C@@H]1c1cc(O)c(O)c(O)c1)c1cc(O)c(O)c(O)c1", "note": "[ECGC, epigallecatechin]", "values": [{"measurement": "binding to anti-apoptotic Bcl-2-family members", "setting": "[1]", "result": "binds to all six anti-apoptotic members of the Bcl-2-family"}]}
{"molecule": "O=C1C(Cl)=C(N2CCN(CCOCCO)CC2)C(=O)N1c1ccc(Cl)c(Cl)c1", "note": "[MLS-0090861]", "values": [{"measurement": "IC50", "setting": "Bfl-1 [2]", "result": 0.42, "unit": "µM"}, {"measurement": "aqueous solubility compared with CID-1180676", "setting": "Solubility", "result": "enhanced aqueous solubility"}, {"measurement": "IC50", "setting": "Bfl-1 [3]", "result": 0.47, "unit": "µM"}]}
